pEC50: −log10 of the molar value. Converted amounts (≈) assume the structure as drawn.
What was measured:
CYP2C19 [1] = biological target: T1, CYP2C19 (Homo sapiens, UniProt P33261); experiment: Inhibition of CYP2C19 (unknown origin) at 24 uM by luminescent readout-based method; assay type: ADME
[2] = biological target: T2, Free fatty acid receptor 1 (Homo sapiens, UniProt O14842); experiment: Agonist activity at GPR40 (unknown origin) expressed in CHO cells at 5 uM by FLIPR calcium flux assay relative to GW9508; assay type: functional, cell-based
T2 sequence (O14842 whole entry): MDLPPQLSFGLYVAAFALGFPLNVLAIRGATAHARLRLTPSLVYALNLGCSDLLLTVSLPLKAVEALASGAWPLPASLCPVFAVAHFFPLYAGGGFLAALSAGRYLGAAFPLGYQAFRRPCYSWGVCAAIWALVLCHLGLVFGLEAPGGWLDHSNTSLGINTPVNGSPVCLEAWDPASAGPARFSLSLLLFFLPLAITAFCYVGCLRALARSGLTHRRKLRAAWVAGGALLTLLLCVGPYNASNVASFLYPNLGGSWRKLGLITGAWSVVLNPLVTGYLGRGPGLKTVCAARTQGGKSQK

[3] = biological target: T2, Free fatty acid receptor 1; experiment: Agonist activity at GPR40 (unknown origin) expressed in CHO cells by FLIPR calcium flux assay in presence of 0.1% bovine serum albumin; assay type: functional, cell-based
CYP2C9 [4] = biological target: T3, CYP2C9 (Homo sapiens, UniProt P11712); experiment: Inhibition of CYP2C9 (unknown origin) at 120 uM by luminescent readout-based method; assay type: ADME
T3 sequence (P11712 whole entry): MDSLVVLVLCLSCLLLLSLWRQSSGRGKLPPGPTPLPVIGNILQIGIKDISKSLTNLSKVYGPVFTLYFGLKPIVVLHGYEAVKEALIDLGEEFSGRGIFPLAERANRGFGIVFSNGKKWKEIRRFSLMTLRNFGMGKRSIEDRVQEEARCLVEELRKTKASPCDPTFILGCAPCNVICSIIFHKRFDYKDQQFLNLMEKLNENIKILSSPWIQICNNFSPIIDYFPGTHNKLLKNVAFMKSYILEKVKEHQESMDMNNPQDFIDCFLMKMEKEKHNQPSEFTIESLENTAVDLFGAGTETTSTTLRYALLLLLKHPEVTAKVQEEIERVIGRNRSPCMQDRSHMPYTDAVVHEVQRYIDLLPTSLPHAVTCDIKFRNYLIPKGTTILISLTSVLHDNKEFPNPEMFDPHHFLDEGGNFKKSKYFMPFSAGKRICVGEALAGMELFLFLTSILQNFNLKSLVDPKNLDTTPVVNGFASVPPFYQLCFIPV

[5] = Half life in BALB/c mouse liver microsomes at 2 uM by HPLC-MS analysis; assay type: ADME
CYP2C19 [6] = biological target: T1, CYP2C19; experiment: Inhibition of CYP2C19 (unknown origin) at 5 uM by luminescent readout-based method; assay type: ADME
CYP2C9 [7] = biological target: T3, CYP2C9; experiment: Inhibition of CYP2C9 (unknown origin) at 5 uM by luminescent readout-based method; assay type: ADME
CYP2D6 [8] = biological target: T4, CYP2D6 (Homo sapiens, UniProt P10635); experiment: Inhibition of CYP2D6 (unknown origin) at 5 uM by luminescent readout-based method; assay type: ADME
T4 sequence (P10635 whole entry): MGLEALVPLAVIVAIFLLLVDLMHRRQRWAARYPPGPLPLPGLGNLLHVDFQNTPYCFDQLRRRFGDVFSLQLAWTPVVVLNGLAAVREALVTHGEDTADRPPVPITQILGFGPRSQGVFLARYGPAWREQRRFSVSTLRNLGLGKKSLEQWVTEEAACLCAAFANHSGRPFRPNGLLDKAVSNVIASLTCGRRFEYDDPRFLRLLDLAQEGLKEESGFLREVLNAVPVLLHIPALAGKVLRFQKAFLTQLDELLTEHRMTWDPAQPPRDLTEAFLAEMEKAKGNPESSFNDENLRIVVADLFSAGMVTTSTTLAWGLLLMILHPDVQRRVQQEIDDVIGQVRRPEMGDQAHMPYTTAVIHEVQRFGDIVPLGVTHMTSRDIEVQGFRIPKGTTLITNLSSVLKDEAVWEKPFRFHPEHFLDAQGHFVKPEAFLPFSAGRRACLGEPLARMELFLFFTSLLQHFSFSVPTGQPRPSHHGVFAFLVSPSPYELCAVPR

[9] = Kinetic solubility of the compound in phosphate-buffered saline at pH 7.4 by filter microplate technique; assay type: physicochemical; details: read-out: Kinetic_solubility
[10] = Plasma protein binding in human at 1 uM after 5 hrs by HPLC-MS/MS analysis; assay type: ADME, cell-free; details: read-out: PPB (converted)
[11] = Apparent permeability from apical to basolateral side in human Caco2 cells assessed […] at 10 uM by HPLC-MS analysis; assay type: ADME, cell-based; details: Caco-2
[12] = biological target: T5, Free fatty acid receptor 4 (Homo sapiens, UniProt Q5NUL3); experiment: Agonist activity at GPR120 (unknown origin) expressed in CHO cells by FLIPR calcium flux assay in presence of 0.1% bovine serum albumin; assay type: functional, cell-based
T5 sequence (Q5NUL3 whole entry): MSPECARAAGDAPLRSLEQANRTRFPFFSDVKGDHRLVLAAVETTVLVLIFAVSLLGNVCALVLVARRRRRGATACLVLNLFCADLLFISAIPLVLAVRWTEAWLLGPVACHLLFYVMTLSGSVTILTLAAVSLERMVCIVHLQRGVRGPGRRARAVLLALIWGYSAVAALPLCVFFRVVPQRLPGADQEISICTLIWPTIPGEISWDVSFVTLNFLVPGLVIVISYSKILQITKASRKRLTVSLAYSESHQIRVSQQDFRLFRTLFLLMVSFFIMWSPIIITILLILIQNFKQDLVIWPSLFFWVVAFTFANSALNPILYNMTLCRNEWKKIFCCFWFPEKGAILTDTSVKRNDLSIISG

[13] = biological target: T6, Free fatty acid receptor 2 (Homo sapiens, UniProt O15552); experiment: Agonist activity at GPR43 (unknown origin) expressed in CHO cells by FLIPR calcium flux assay in presence of 0.1% bovine serum albumin; assay type: functional, cell-based
T6 sequence (O15552 whole entry): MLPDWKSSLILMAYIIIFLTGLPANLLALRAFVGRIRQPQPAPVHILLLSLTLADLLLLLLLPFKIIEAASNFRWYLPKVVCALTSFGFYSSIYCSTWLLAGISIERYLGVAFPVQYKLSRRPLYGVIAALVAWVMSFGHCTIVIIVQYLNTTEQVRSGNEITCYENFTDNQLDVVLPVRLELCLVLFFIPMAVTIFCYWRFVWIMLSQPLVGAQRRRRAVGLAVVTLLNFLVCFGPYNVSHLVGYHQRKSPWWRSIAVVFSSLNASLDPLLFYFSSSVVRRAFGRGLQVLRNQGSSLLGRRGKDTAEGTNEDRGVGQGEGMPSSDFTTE

CYP3A4 = CYP3A4 (Homo sapiens, UniProt P08684); experiment: Inhibition of CYP3A4 (unknown origin) at 5 uM by luminescent readout-based method; assay type: ADME
CYP3A4, sequence (P08684 whole entry): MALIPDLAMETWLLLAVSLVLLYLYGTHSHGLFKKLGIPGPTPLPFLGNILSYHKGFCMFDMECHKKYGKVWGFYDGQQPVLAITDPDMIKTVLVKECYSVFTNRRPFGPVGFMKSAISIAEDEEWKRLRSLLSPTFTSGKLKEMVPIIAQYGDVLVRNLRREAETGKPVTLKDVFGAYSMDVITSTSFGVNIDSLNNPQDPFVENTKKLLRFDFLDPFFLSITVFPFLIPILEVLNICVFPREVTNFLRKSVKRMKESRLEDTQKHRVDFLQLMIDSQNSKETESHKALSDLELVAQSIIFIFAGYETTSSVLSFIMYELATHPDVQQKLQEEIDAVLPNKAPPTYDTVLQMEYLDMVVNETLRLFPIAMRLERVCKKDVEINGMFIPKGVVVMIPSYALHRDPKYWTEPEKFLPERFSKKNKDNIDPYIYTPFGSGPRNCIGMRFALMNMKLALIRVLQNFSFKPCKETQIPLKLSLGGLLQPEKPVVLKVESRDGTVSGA

[14] = biological target: T7, Free fatty acid receptor 3 (Homo sapiens, UniProt O14843); experiment: Agonist activity at GPR41 (unknown origin) expressed in CHO cells by FLIPR calcium flux assay in presence of 0.1% bovine serum albumin; assay type: functional, cell-based
T7 sequence (O14843 whole entry): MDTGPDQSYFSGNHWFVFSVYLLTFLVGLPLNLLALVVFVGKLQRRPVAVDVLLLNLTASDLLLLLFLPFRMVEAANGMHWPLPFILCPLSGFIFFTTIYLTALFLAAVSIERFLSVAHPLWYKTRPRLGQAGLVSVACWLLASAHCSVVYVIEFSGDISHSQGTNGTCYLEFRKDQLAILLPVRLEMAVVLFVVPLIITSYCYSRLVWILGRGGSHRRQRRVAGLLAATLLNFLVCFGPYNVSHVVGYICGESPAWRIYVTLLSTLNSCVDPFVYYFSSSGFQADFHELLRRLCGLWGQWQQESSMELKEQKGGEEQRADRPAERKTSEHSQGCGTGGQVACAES

CYP1A2 = biological target: T8, CYP1A2 (Homo sapiens, UniProt P05177); experiment: Inhibition of CYP1A2 (unknown origin) at 5 uM by luminescent readout-based method; assay type: ADME
T8 sequence (P05177 whole entry): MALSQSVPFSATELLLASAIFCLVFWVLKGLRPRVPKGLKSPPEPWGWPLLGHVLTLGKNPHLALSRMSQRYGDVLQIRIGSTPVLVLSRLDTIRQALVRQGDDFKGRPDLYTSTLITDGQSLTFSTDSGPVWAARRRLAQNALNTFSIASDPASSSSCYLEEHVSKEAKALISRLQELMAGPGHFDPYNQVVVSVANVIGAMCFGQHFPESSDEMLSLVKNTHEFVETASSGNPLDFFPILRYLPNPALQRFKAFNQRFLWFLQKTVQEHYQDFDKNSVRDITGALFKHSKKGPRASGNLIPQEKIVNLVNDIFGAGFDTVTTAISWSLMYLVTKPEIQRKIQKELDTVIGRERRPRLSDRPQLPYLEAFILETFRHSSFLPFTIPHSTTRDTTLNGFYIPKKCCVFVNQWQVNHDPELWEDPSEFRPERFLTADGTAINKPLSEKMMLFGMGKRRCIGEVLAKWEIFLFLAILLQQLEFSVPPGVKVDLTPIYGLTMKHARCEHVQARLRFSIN

CYP2D6 [15] = biological target: T4, CYP2D6; experiment: Inhibition of CYP2D6 (unknown origin) at 1 uM by luminescent readout-based method

T1 sequence (P33261 whole entry): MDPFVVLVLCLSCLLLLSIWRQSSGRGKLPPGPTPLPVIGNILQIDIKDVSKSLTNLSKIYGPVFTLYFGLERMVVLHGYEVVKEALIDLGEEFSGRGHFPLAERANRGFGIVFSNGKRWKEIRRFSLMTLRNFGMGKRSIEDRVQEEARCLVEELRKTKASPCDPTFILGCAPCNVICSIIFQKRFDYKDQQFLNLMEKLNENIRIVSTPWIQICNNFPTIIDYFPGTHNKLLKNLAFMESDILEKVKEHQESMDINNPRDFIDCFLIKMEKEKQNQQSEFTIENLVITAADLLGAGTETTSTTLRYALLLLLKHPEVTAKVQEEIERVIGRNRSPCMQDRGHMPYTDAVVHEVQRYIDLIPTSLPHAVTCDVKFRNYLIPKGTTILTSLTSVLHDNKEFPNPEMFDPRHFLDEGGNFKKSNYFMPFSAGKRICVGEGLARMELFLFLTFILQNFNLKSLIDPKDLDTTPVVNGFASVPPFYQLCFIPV

Structure (SMILES)	Efficacy [2] [%]	pEC50 [3]	further results
COc1ccc2[nH]c([S+]([O-])Cc3ncc(C)c(OC)c3C)nc2c1 (stereo unspecified) [OMEPRAZOLE]			inhibition at 24 µM (CYP2C19 [1]): 93.4%
Cc1cccc(-c2noc(COc3ccc(CCC(=O)O)cc3Cl)n2)c1	54	5.34	
O=C(O)CCc1ccc(OCc2coc(-c3cccc(F)c3)n2)cc1	99	6.25	
O=C(O)CCc1ccc(OCc2nc(-c3cccs3)no2)cc1	59	5.59	
O=C(O)CCc1ccc(OCc2noc(-c3ccccc3)n2)cc1	42	5.58	
OC(Cn1cncn1)(Cn1cncn1)c1ccc(F)cc1F [FLUCONAZOLE]			inhibition at 120 µM (CYP2C9 [4]): 89.1%
O=C(O)CCc1ccc(OCc2nc(-c3ccco3)no2)cc1		< 4.00	
Cc1oc(-c2ccccc2)nc1COc1ccc(CCC(=O)O)cc1	103	7.24	half-life at 2 µM [5]: 7.23 h; inhibition at 5 µM (CYP2C19 [6]): 23.6%; inhibition at 5 µM (CYP2C9 [7]): 10.8%; inhibition at 5 µM (CYP2D6 [8]): 17.7%; solubility kinetic [9]: 404 µM (≈ 136 µg/mL); fraction unbound at 5 h, 1 µM [10]: 0.014; Papp A→B at 10 µM [11]: 15.2 ×10⁻⁶ cm/s; pEC50 [12]: < 5.00; pEC50 [13]: < 5.00; inhibition at 5 µM (CYP3A4): 36.2%; pEC50 [14]: < 5.00; inhibition at 5 µM (CYP1A2): 8.9%
C=C[C@H]1C[N@@]2CC[C@H]1C[C@@H]2[C@@H](O)c1ccnc2ccc(OC)cc12 [QUINIDINE]			inhibition at 1 µM (CYP2D6 [15]): 96.2%
O=C(O)CCc1ccc(OCc2nc(-c3cccc(C(F)(F)F)c3)no2)c(Cl)c1	22	4.52	
COc1cccc(-c2noc(COc3ccc(CCC(=O)O)cc3Cl)n2)c1	88	5.52	
Cc1ccc(-c2noc(COc3ccc(CCC(=O)O)cc3)n2)cc1	99	6.52	half-life at 2 µM [5]: 6.22 h; inhibition at 5 µM (CYP2C19 [6]): 20.6%; inhibition at 5 µM (CYP2C9 [7]): 4.26%; inhibition at 5 µM (CYP2D6 [8]): -8.3%; solubility kinetic [9]: 334 µM (≈ 113 µg/mL); fraction unbound at 5 h, 1 µM [10]: 0.015; Papp A→B at 10 µM [11]: 27.3 ×10⁻⁶ cm/s; pEC50 [12]: < 5.00; pEC50 [13]: < 5.00; inhibition at 5 µM (CYP3A4): 29.2%; pEC50 [14]: < 5.00; inhibition at 5 µM (CYP1A2): 13.6%
O=C(O)CCc1ccc(OCc2nc(-c3ccc(F)cc3)no2)cc1	66	6.17	
O=C(O)CCc1ccc(OCc2nc(-c3cccc(C(F)(F)F)c3)no2)cc1	65	5.95	
O=C(O)CCc1ccc(OCc2nc(-c3ccc(C(F)(F)F)cc3)no2)cc1	73	6.21	
COc1cccc(-c2noc(COc3ccc(CCC(=O)O)cc3)n2)c1	81	5.57	

Structure (SMILES)	Efficacy [2] [%]	pEC50 [3]	further results
CC(Oc1ccc(CCC(=O)O)cc1)c1nc(-c2ccccc2)no1 (stereo unspecified)	109	5.62	
Cc1cc(-c2noc(COc3ccc(CCC(=O)O)cc3)n2)ccc1F	75	5.67	
O=C(O)CCc1ccc(OCc2nc(-c3ccccc3)no2)cc1	65	5.95	
O=C(O)Cc1ccc(OCc2nc(-c3cccc(Cl)c3)no2)cc1	69	4.73	
O=C(O)CCc1ccc(OCc2ncc(-c3cccc(Cl)c3)o2)cc1	30	4.32	
O=C(O)CCc1ccc(OCc2nc(-c3ccc(Cl)cc3)no2)cc1	84	6.27	half-life at 2 µM [5]: 12.1 h; inhibition at 5 µM (CYP2C19 [6]): 31.6%; inhibition at 5 µM (CYP2C9 [7]): 16.2%; inhibition at 5 µM (CYP2D6 [8]): -5.8%; solubility kinetic [9]: 214 µM (≈ 76.8 µg/mL); fraction unbound at 5 h, 1 µM [10]: 0.001; Papp A→B at 10 µM [11]: 2.1 ×10⁻⁶ cm/s; pEC50 [12]: < 5.00; pEC50 [13]: < 5.00; inhibition at 5 µM (CYP3A4): 50.1%; pEC50 [14]: < 5.00; inhibition at 5 µM (CYP1A2): 25.9%
CC(Oc1ccc(CCC(=O)O)cc1)c1nc(-c2ccc(Cl)cc2)no1 (stereo unspecified)	68	6.30	
O=C(O)CCc1ccc(OCc2ncc(-c3cccc(F)c3)o2)cc1	81	5.97	
O=C(O)CCc1ccc(OCc2ncc(-c3ccccc3)o2)cc1	58	5.80	
O=C(O)CCc1ccc(OCc2coc(-c3cccc(Cl)c3)n2)cc1	106	6.80	
O=C(O)CCc1ccc(OCc2nc(-c3ccccc3)no2)c(Cl)c1	95	4.88	
O=C(O)CCc1ccc(OCc2nc(-c3cccc(Br)c3)no2)cc1	130	5.90	
CCc1ccc(-c2noc(COc3ccc(CCC(=O)O)cc3)n2)cc1	106	6.68	
CC(Oc1ccc(CCC(=O)O)cc1)c1nc(-c2cccs2)no1 (stereo unspecified)	94	5.40	
O=C(O)CCc1ccc(OCc2coc(-c3ccccc3)n2)cc1	98	6.15	
O=C(O)CCc1ccc(OCc2nc(-c3ccccc3Cl)no2)cc1	61	5.92	

Reference: ChEMBL document CHEMBL3600322, “Phenoxymethyl 1,3-oxazoles and 1,2,4-oxadiazoles as potent and selective agonists of free fatty acid receptor 1 (GPR40)” (Bioorg Med Chem Lett, 2015)
